Results as given in patent US20070218189A1, “Reduction inhibitory agent for active oxygen eliminating-activity” (KABUSHIKI KAISHA HAYASHIBARA SEIBUTSU KAGAKU KENYUJO, priority 2001, published 2007).
Values belong to the molecule of their own block, whether it stands above or below them.

Legend:
Format in all cases: biochemical
[1] = test system: superoxide, formed in a xanthine-xanthine oxidase system; assay: Active oxygen eliminating activity of powdery vegetable compositions with or without cyclotetrasaccharide before and after storage (Experiment 6); settings: carrot, onion, Japanese radish, cabbage, spinach, cucumber, pumpkin; in words
active oxygen = assay: Active oxygen eliminating activity of superoxide dismutase and antioxidants in cyclotetrasaccharide solution or water before and after storage (Experiment 7); settings: 30% (w/v) cyclotetrasaccharide solution; superoxide dismutase, α-glucosyl hesperidin, α-glucosyl rutin, gallic acid, catechin; in words
Method: In one milliliter of 30% (w/v) cyclotetrasaccharide solution, which is prepared by using cyclotetrasaccharide obtained in Experiment 2, was dissolved five micrograms (μ g) of superoxide dismutase from a horseradish commercialized by Sigma Chemical Co., St. Louis, USA, 10 mg of α-glucosyl hesperidin commercialized by Hayashibara Biochemical Laboratories, Inc., Okayama Japan, 10 mg of α-glucosyl rutin commercialized by Hayashibara Biochemical Laboratories, Inc., Okayama, Japan, 250 μg of gallic acid commercialized by Wako Pure Chemical Industries, Ltd., Tokyo, Japan, or 50 μg of catechin to obtain a liquid composition. Each of the compositions was placed in a glass test tube, sealed with a rubber cap, and stored under a dark condition. As a control, water was used in place of the cyclotetrasaccharide solution.

[2] = test system: superoxide, formed in a xanthine-xanthine oxidase system; assay: Active oxygen eliminating activity of powdery carrot compositions with saccharides before and after storage, nitro blue tetrazolium (NBT) test (Experiment 3); settings: for Activity (unit/g) After storage / Percentage of residual activity (%) / Activity (unit/g) Before storage: powdery carrot composition; for Activity (unit/g) After storage / Percentage of residual activity (%): saccharide added at 10% d.s.b., stored at 40° C. for seven days; for Activity (unit/g) Before storage: saccharide added to disrupted carrots at 10% d.s.b.
Method: (§1) Fresh raw carrots were disrupted by a mixer, and saccharides were respectively added to the mixture and dissolved therein to give a concentration of 10%, d.s.b. The solutions were dried under a reduced pressure at 40° C. for two days, dried in vacuo at the same temperature for 24 hours, and pulverized by a mixer into powdery carrot compositions. […] An about 100 g each of the compositions was placed and sealed in a 500-ml polystyrene container, and stored at 40° C. for seven days. The active oxygen eliminating activities of the compositions before and after storage were compared with each other. The active oxygen eliminating activity was assayed by the nitro blue tetrazolium (NBT) test by Toshio IMANARI et al. in Igakuno Ayumi, Vol. 101, pp. 496-497 (1977), and the level of superoxide, formed in a xanthine-xanthine oxidase system, was assayed by quantifying calorimetrically the content of formazan formed by reducing NBT. As a control, refined water was used as a test solution. One unit activity of active oxygen eliminating activity was defined as that inhibited 50% formazan formation as compared with the control. […] Thus cyclotetrasaccharide is preferable as an effective ingredient for a reduction inhibitory agent for active oxygen eliminating activity.

[3] = test system: superoxide, formed in a hypoxanthine-xanthine oxidase system; assay: Active oxygen eliminating activity of powdery carrot compositions with saccharides before and after storage, electron spin resonance (ESR) test (Experiment 4); settings: for Activity (unit/g) Before storage / Activity (unit/g) After two weeks storage / percentage of residual activity After two weeks storage / Activity (unit/g) After one week storage / percentage of residual activity After one week storage: powdery carrot composition; for Activity (unit/g) Before storage: saccharide added at 10% d.s.b.; for Activity (unit/g) After two weeks storage / percentage of residual activity After two weeks storage: stored at 40° C. for fourteen days; for percentage of residual activity After two weeks storage / percentage of residual activity After one week storage: numerals in parentheses; for Activity (unit/g) After one week storage / percentage of residual activity After one week storage: stored at 40° C. for seven days
Method: Fresh raw carrots were disrupted as Experiment 3, and saccharides were respectively added to the mixture and dissolved therein to give a concentration of 10%, d.s.b. The solutions were dried under a reduced pressure at 40° C. for one day, dried in vacuo at the same temperature for 17 hours, and pulverized by a mixer into powdery carrot compositions. […] About 100 g each of the compositions was placed and sealed in a 500-ml polystyrene container, and stored at 40° C. for seven or fourteen days. The active oxygen eliminating activities of the compositions before and after storage were compared with each other. The active oxygen eliminating activity was assayed by the electron spin resonance (ESR) test by Toshihiko OZAWA in BUNSEKI, Vol. 2, pp. 68-74 (2000), and the level of superoxide, formed in a hypoxanthine-xanthine oxidase system, was assayed by the spin-trapping with 5,5-dimethyl-1-pyrroline-N-oxide in ESR.

[4] = test system: superoxide, formed in a xanthine-xanthine oxidase system; assay: Influence of cyclotetrasaccharide concentration on active oxygen eliminating activity of powdery carrot compositions, NBT test (Experiment 5); settings: for Activity (unit/g) After storage / Percentage of residual activity (%): 40° C. seven days
Method: as §1
Similarly as in Experiment 3, cyclotetrasaccharide was respectively mixed with and dissolved in disrupted carrots to give concentrations of 0-20%, d.s.b. The resulting mixtures were dried in vacuo at 40° C. for 24 hours, and pulverized into powdery carrot compositions. Similarly as in Experiment 3, each powdery composition was placed and sealed in a polystyrene container, and stored at 40° C. for seven days for evaluating the reduction inhibitory activity for active oxygen activity. The active oxygen eliminating activity of one gram each of powdery compositions before and after storage was measured by the method in Experiment 3.

[5] = 0.1% cyclotetrasaccharide added to carrot (content 1.0% d.s.b.)
[6] = 0.5% cyclotetrasaccharide added to carrot (content 4.9% d.s.b.)
[7] = 1.0% cyclotetrasaccharide added to carrot (content 9.4% d.s.b.)
[8] = 2.5% cyclotetrasaccharide added to carrot (content 20.7% d.s.b.)
[9] = 5.0% cyclotetrasaccharide added to carrot (content 34.2% d.s.b.)
[10] = 10.0% cyclotetrasaccharide added to carrot (content 51.1% d.s.b.)
[11] = 20.0% cyclotetrasaccharide added to carrot (content 67.6% d.s.b.)

- reduction inhibitory activity for active oxygen eliminating activity by incorporating cyclotetrasaccharide [1]: observed in many vegetables
- Activity (unit/g) After storage [2]: 390 unit/g
- Percentage of residual activity (%) [2]: 66%
- Activity (unit/g) Before storage [2]: 590 unit/g
- residual percentage / reduction inhibitory activity for active oxygen eliminating activity among the saccharides tested ([2]; powdery carrot compositions, 40° C. seven days, in words): highest residual percentage
- Activity (unit/g) Before storage [3]: 186 unit/g
- Activity (unit/g) After two weeks storage [3]: 66 unit/g
- percentage of residual activity After two weeks storage [3]: 36%
- Activity (unit/g) After one week storage [3]: 88 unit/g
- percentage of residual activity After one week storage [3]: 47%
- residual percentage for active oxygen eliminating activity among the saccharides tested ([3]; powdery carrot compositions, in words): highest residual percentage
- Activity (unit/g) After storage [4, 5]: 390 unit/g
- Percentage of residual activity (%) [4, 5]: 42%
- Activity (unit/g) Before storage [4, 5]: 930 unit/g
- Activity (unit/g) After storage [4, 6]: 470 unit/g
- Percentage of residual activity (%) [4, 6]: 57%
- Activity (unit/g) Before storage [4, 6]: 820 unit/g
- Activity (unit/g) After storage [4, 7]: 450 unit/g
- Percentage of residual activity (%) [4, 7]: 61%
- Activity (unit/g) Before storage [4, 7]: 740 unit/g
- Activity (unit/g) After storage [4, 8]: 460 unit/g
- Percentage of residual activity (%) [4, 8]: 66%
- Activity (unit/g) Before storage [4, 8]: 700 unit/g
- Activity (unit/g) After storage [4, 9]: 340 unit/g
- Percentage of residual activity (%) [4, 9]: 62%
- Activity (unit/g) Before storage [4, 9]: 550 unit/g
- Activity (unit/g) After storage [4, 10]: 290 unit/g
- Percentage of residual activity (%) [4, 10]: 69%
- Activity (unit/g) Before storage [4, 10]: 420 unit/g
- Activity (unit/g) After storage [4, 11]: 280 unit/g
- Percentage of residual activity (%) [4, 11]: 64%
- Activity (unit/g) Before storage [4, 11]: 390 unit/g
SMILES: OCC1OC2OCC3O[C@H](O[C@H]4C(O)C(CO)OC(OCC5O[C@H](O[C@@H](C1O)C2O)C(O)C(O)[C@@H]5O)C4O)C(O)C(O)[C@@H]3O (stereo partly drawn) [Cyclotetrasaccharide, cyclo{→6)-α-D-glucopyranosyl-(1→3)-α-D-glucopyranosyl-(1→6)-α-D-glucopyranosyl-(1→3)-α-D-glucopyranosyl-(1→}]
- reducing inhibitory activity for active oxygen eliminating activity of plant antioxidants (active oxygen): effective reducing inhibitory activity

- Activity (unit/g) After storage [2]: 180 unit/g
- Percentage of residual activity (%) [2]: 33%
- Activity (unit/g) Before storage [2]: 550 unit/g
- Activity (unit/g) Before storage [3]: 236 unit/g
- Activity (unit/g) After two weeks storage [3]: 53 unit/g
- percentage of residual activity After two weeks storage [3]: 22%
- Activity (unit/g) After one week storage [3]: 56 unit/g
- percentage of residual activity After one week storage [3]: 24%
SMILES: OC[C@H]1O[C@H](O[C@H]2[C@H](O)[C@@H](O)C(O)O[C@@H]2CO)[C@H](O)[C@@H](O)[C@@H]1O (mixture of isomers) [Maltose, maltose]
